# Patent US10745416B2, “Macrocyclic compounds for treating disease” (Turning Point Therapeutics, Inc., priority 2017, dated 2020)
# Columns and labels:
# TT cell (RET C634W) = experiment: Cell proliferation assay (CellTiter-Glo, 72 hours); assay type: cell-based; details: Homo sapiens, anti-cell proliferation
# Description: Human medulla thyroid carcinoma cell line TT (containing RET […] mutation) and acute myelogenous cell line KG-1 were purchased from ATCC. Human colon cancer cell line KMI2 (containing TPM3-TRKA) was obtained from NCI.
# Two thousand cells per well were seeded in 384 well white plate for 24 hrs, and then treated with compounds for 72 hours (37° C., 5% CO2). Cell proliferation was measured using CellTiter-Glo luciferase-based ATP detection assay (Promega) following the manufactures's protocol. IC50 determinations were performed using GraphPad Prism software (GraphPad, Inc., San Diego, Calif.).
# RET (Y806H) = molecular target: T1, RET (Y806H) (Homo sapiens, UniProt P07949, Y806H); experiment: Biochemical kinase assay (Reaction Biology, 33P ATP); details: 10 μM ATP
# T1 construct: purchased Reaction Biology Corporation (assay run at the CRO)
# Description: (§1) The biochemical kinase assay was performed at Reaction Biology Corporation (www.reactionbiology.com, Malvern, Pa.) following the procedures described in the reference (Anastassiadis T, et al Nat Biotechnol. 2011, 29, 1039). Specific kinase/substrate pairs along with required cofactors were prepared in reaction buffer; 20 mM Hepes pH 7.5, 10 mM MgCl2, 1 mM EGTA, 0.02% Brij35, 0.02 mg/ml BSA, 0.1 mM Na3VO4, 2 mM DTIT, 1% DMSO. Compounds were delivered into the reaction, followed ˜20 minutes later by addition of a mixture of ATP (Sigma, St. Louis Mo.) and ^33P ATP (Perkin Elmer, Waltham Mass.) to a final concentration of 10 μM. Reactions were carried out at room temperature for 120 min, followed by spotting of the reactions onto P81 ion exchange filter paper (Whatman Inc., Piscataway, N.J.). Unbound phosphate was removed by extensive washing of filters in 0.75% phosphoric acid. […] IC50 values and curve fits were obtained using Prism (GraphPad Software).
# RET (E762Q) = molecular target: T2, RET (E762Q) (Homo sapiens, UniProt P07949, E762Q); experiment: as above; details: 10 μM ATP
# T2 construct: purchased Reaction Biology Corporation (assay run at the CRO)
# Description: as §1
# RET (S904F) = molecular target: T3, RET (S904F) (Homo sapiens, UniProt P07949, S904F); experiment: as above; details: 10 μM ATP
# T3 construct: purchased Reaction Biology Corporation (assay run at the CRO)
# Description: as §1
# RET-CCDC6 (PTC1) = molecular target: T4, RET-CCDC6 (PTC1) (Homo sapiens, UniProt P07949); experiment: as above; details: 10 μM ATP
# T4 construct: fusion transcripts composed of the 3′ end of RET kinase domain and the 5′ end of separate partner genes; CCDC6 N-terminal part (fusion partner); purchased Reaction Biology Corporation (assay run at the CRO); the other entry of the earlier key: CCDC6 (Q16204, Coiled-coil domain-containing protein 6)
# Description: as §1
# RET-NCOA4 (PTC3) = molecular target: T5, RET-NCOA4 (PTC3) (Homo sapiens, UniProt P07949); experiment: as above; details: 10 μM ATP
# T5 construct: fusion transcripts composed of the 3′ end of RET kinase domain and the 5′ end of separate partner genes; NCOA4 N-terminal part (fusion partner); purchased Reaction Biology Corporation (assay run at the CRO)
# Description: as §1
# RET (M918T) = molecular target: T6, RET (M918T) (Homo sapiens, UniProt P07949, M918T); experiment: as above; details: 10 μM ATP
# T6 construct: purchased Reaction Biology Corporation (assay run at the CRO)
# Description: as §1
# RET (S904A) = molecular target: T7, RET (S904A) (Homo sapiens, UniProt P07949, S904A); experiment: as above; details: 10 μM ATP
# T7 construct: purchased Reaction Biology Corporation (assay run at the CRO)
# Description: as §1
# RET (R813Q) = molecular target: T8, RET (R813Q) (Homo sapiens, UniProt P07949, R813Q); experiment: as above; details: 10 μM ATP
# T8 construct: purchased Reaction Biology Corporation (assay run at the CRO)
# Description: as §1
# LYN = molecular target: T9, LYN (Homo sapiens, UniProt P07948); experiment: as above; details: 10 μM ATP
# T9 construct: purchased Reaction Biology Corporation (assay run at the CRO)
# Description: as §1
# RET (A883F) = molecular target: T10, RET (A883F) (Homo sapiens, UniProt P07949, A883F); experiment: as above; details: 10 μM ATP
# T10 construct: purchased Reaction Biology Corporation (assay run at the CRO)
# Description: as §1
# HCK = molecular target: T11, HCK (Homo sapiens, UniProt P08631); experiment: as above; details: 10 μM ATP
# T11 construct: purchased Reaction Biology Corporation (assay run at the CRO)
# Description: as §1
# RET (V804L) = molecular target: T12, RET (V804L) (Homo sapiens, UniProt P07949, V804L); experiment: as above; details: 10 μM ATP
# T12 construct: purchased Reaction Biology Corporation (assay run at the CRO)
# Description: as §1
# KIF5B-RET G810R = molecular target: T13, KIF5B-RET G810R (Homo sapiens, UniProt P07949, G810R); experiment: Immunoblotting for cellular RET phosphorylation in Ba/F3 KIF5B-RET G810R; assay type: cell-based; details: 4 hours treatment, read-out: suppression of RET autophosphorylation IC50
# T13 construct: KIF5B (N-terminal fusion partner, kinesin-1 heavy chain, P33176); expressed in transfected cells; host or cells: Ba/F3 cells, lentiviral transduction (pCDH-CMV-MCS-EF1-Puro); the other entry of the earlier key: KIF5B (P33176, Kinesin-1 heavy chain)
# T13 sequence (P07949 713-1063 G810R limits assumed): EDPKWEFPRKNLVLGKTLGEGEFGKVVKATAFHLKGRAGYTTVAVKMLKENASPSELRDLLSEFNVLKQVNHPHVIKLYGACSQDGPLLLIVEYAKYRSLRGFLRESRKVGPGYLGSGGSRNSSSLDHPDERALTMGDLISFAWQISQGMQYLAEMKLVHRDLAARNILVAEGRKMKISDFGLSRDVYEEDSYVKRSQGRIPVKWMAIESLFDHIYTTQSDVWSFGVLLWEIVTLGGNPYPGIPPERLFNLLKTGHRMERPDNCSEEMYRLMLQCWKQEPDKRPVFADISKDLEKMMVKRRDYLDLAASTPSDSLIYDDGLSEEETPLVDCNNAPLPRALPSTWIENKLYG
# T4 sequence (P07949 with tags, fused parts or gaps): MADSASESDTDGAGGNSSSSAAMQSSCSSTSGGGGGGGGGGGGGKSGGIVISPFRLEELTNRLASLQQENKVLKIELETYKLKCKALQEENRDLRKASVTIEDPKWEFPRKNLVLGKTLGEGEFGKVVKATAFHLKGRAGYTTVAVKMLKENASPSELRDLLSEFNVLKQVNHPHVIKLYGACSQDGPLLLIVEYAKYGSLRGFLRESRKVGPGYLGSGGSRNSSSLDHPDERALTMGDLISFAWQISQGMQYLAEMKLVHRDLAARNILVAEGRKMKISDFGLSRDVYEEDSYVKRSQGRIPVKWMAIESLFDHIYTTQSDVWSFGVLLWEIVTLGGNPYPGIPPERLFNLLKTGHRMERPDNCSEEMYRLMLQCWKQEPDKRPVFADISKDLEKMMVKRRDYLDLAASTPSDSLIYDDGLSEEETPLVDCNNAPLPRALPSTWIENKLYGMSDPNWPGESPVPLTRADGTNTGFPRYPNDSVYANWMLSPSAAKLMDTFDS
# T9 sequence (P07948 whole entry): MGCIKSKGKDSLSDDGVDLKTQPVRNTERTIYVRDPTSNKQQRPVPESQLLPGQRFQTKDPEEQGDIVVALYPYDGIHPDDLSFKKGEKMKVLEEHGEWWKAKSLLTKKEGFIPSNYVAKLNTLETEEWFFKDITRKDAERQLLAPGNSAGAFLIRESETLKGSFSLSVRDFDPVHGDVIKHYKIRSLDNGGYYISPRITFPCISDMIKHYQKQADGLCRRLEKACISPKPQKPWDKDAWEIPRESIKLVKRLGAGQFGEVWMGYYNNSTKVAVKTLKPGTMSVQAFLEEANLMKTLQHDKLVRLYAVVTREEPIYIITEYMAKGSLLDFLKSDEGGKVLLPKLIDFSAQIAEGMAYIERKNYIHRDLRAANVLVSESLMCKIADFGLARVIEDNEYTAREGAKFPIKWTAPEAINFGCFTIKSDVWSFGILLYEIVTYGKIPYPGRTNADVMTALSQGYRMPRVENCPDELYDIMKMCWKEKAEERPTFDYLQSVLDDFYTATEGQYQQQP
# T8 sequence (P07949 29-1114 R813Q): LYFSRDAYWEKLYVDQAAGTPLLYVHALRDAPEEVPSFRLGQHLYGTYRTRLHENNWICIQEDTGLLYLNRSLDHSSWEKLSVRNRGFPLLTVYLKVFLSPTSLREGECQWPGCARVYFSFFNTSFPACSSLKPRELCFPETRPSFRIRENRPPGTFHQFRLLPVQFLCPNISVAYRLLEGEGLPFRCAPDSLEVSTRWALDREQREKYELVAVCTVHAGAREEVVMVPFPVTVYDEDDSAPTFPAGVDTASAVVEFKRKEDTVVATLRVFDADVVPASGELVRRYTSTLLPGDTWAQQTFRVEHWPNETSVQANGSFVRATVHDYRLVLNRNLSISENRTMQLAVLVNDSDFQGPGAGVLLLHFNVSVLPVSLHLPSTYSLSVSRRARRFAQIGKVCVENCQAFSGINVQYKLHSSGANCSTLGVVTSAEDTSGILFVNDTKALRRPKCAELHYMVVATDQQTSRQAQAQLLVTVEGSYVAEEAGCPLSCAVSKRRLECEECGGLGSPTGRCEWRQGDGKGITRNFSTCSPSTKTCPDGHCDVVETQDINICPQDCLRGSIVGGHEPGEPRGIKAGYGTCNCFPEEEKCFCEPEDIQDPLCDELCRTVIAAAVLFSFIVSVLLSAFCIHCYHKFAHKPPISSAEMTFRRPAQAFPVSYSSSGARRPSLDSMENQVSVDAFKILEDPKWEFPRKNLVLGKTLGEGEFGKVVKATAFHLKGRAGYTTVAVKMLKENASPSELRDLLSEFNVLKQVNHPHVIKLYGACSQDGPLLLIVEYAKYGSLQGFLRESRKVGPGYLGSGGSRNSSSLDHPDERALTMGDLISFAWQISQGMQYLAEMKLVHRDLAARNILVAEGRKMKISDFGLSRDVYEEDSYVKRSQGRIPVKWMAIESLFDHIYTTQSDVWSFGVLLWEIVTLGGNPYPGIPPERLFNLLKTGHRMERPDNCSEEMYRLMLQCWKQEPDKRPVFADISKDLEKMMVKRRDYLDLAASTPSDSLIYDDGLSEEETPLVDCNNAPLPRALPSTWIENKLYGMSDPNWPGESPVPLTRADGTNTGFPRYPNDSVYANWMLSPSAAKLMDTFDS
# T10 sequence (P07949 29-1114 A883F): as the sequence (P07949 29-1114 R813Q) above, with Q785R, A855F counted along it
# T2 sequence (P07949 29-1114 E762Q): as the sequence (P07949 29-1114 R813Q) above, with E734Q, Q785R counted along it
# T12 sequence (P07949 29-1114 V804L): as the sequence (P07949 29-1114 R813Q) above, with V776L, Q785R counted along it
# T5 sequence (P07949 with tags, fused parts or gaps): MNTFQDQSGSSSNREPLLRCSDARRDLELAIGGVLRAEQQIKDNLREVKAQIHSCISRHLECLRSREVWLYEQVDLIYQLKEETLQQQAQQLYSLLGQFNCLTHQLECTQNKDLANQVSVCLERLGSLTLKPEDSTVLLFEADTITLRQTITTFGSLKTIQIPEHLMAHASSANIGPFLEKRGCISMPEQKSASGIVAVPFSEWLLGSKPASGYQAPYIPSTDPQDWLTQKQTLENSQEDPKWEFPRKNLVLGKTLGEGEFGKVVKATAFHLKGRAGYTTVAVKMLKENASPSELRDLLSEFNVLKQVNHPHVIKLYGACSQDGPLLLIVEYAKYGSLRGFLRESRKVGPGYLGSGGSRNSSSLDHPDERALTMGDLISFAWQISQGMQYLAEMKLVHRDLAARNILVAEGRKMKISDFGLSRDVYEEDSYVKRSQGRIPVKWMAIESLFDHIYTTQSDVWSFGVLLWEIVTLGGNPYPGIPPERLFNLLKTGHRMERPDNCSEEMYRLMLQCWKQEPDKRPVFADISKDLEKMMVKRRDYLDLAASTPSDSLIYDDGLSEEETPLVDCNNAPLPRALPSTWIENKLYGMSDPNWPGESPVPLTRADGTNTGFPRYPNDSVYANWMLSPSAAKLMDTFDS
# T11 sequence (P08631 whole entry): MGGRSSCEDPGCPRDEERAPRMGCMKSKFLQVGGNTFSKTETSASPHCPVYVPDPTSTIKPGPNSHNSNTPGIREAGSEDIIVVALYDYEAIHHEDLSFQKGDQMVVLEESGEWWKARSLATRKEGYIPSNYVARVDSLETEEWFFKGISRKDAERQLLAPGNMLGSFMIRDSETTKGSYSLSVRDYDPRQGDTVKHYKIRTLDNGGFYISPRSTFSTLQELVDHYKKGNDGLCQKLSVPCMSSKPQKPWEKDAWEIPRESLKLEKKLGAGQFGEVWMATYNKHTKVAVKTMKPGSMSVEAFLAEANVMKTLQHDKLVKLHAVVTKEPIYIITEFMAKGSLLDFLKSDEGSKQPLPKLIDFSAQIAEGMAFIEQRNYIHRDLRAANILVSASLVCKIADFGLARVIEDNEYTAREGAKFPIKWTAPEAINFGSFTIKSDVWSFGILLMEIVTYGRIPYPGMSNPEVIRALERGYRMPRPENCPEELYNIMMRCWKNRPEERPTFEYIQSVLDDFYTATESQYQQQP
# T1 sequence (P07949 29-1114 Y806H): as the sequence (P07949 29-1114 R813Q) above, with Y778H, Q785R counted along it
# T6 sequence (P07949 29-1114 M918T): as the sequence (P07949 29-1114 R813Q) above, with Q785R, M890T counted along it
# T3 sequence (P07949 29-1114 S904F): as the sequence (P07949 29-1114 R813Q) above, with Q785R, S876F counted along it
# T7 sequence (P07949 29-1114 S904A): as the sequence (P07949 29-1114 R813Q) above, with Q785R, S876A counted along it
IC50 (RET (Y806H)) [nM],IC50 (RET (E762Q)) [nM],IC50 (RET (S904F)) [nM],IC50 (RET-CCDC6 (PTC1)) [nM],IC50 (RET-NCOA4 (PTC3)) [nM],IC50 (RET (M918T)) [nM],IC50 (RET (S904A)) [nM],IC50 (RET (R813Q)) [nM],IC50 (LYN) [nM],IC50 (RET (A883F)) [nM],IC50 (HCK) [nM],IC50 (RET (V804L)) [nM],IC50 (KIF5B-RET G810R) [nM],SMILES,IC50 (TT cell (RET C634W)) [nM]
0.385,2.07,0.0621,0.0893,0.0635,0.114,0.159,0.341,1.97,0.52,1.95,10,–,"C[C@H]1CNC(=O)c2cnn3cc4c(nc23)N(Cc2cc(F)ccc2O1)[C@@H]1CCC[C@@H]1O4 [Compound 1, (3aR,11S,20aS)-7-fluoro-11-methyl-2,3,3a,12,13,20a-hexahydro-1H,5H-17-19-(metheno)cyclopenta[5,6][1,4] oxazino[3,4-i]pyrazolo[4,3-f][1,4,8,10]benzoxatriacyclotridecin-14(11H)-one]",< 0.5
0.261,0.58,0.364,1.97,0.691,1.42,1.22,2.46,2.03,3.08,2.71,2350,3 to 10,"C[C@H]1CNC(=O)c2cnn3cc4c(nc23)N(Cc2cc(F)cnc2O1)[C@@H]1CCC[C@@H]1O4 [Compound 5, (3aR,11S,20aS)-7-fluoro-11-methyl-2,3,3a,12,13,20a-hexahydro-1H,5H-17-19-(metheno)cyclopenta[5,6][1,4] oxazino[3,4-i]pyrazolo[4,3-f]pyrido[3,2-l][1,4,8,10]oxatriazacyclotridecin-14(11H)-one]",0.9
